The values below come from patent EP4104902B1, “COMPOUNDS AND M[…] SAME” (priority 2020, dated 2021).

The subject of this test is recombinant rabies virus 1088 strain expressing Gaussia Luciferase (GLuc) (1088/GLuc). Type of test: cell-based.

Like-named read-outs stand apart in the source and are kept apart here.

Consider `CC(C)CNC(=O)[C@]12NC[C@@H]3C[C@H]1CN(Cc1ccc(F)cc1)[C@H]2[C@@H]3Cc1ccc(O)cc1` (relative stereo) [IB-631], for which the IC50 (read-out: Anti-rabies activity) was 10 to 30 µM.
As for `CC(C)CNC(=O)[C@]12NC[C@@H]3C[C@H]1CN(CC(C)C)[C@H]2[C@@H]3CCc1ccccc1` (relative stereo) [IB-633], the IC50 (read-out: Anti-rabies activity) was under 5 µM.
Same read-out and setting: under `CC(C)CCN1C[C@@H]2C[C@H]3CN[C@]2(C(=O)NCCC(N)=O)[C@@H]1[C@@H]3CCc1ccccc1` (relative stereo) [IB-636] stands 10 to 30 µM; under `NC(=O)CCNC(=O)[C@]12NC[C@@H]3C[C@H]1CN(CC1CCCCC1)[C@H]2[C@@H]3Cc1ccccc1` (relative stereo) [IB-637], under 5 µM; under `O=C(NCCO)[C@]12NC[C@@H]3C[C@H]1CN(CCc1ccccc1)[C@H]2[C@@H]3Cc1ccccc1` (relative stereo) [IB-640], under 5 µM.
Same read-out and setting: then `CC(C)C[C@@H]1[C@@H]2CN[C@@]3(C(=O)NCCO)[C@@H](C2)CN(CCc2ccccc2)[C@@H]13` (relative stereo) [IB-641], with 10 to 30 µM.
The same measure, in the same setting: under `O=C(NCc1ccc(F)cc1)[C@]12NC[C@@H]3C[C@H]1CN(CCc1ccccc1)[C@H]2[C@@H]3Cc1ccc(O)cc1` (relative stereo) [IB-642] stands under 5 µM.
In the case of `CC(C)C[C@@H]1[C@@H]2CN[C@@]3(C(=O)NCCO)[C@@H](C2)CN(Cc2cccc4ccccc24)[C@@H]13` (relative stereo) [IB-643], the IC50 (read-out: Anti-rabies activity) lay in the range of 10 to 30 µM.
Same read-out and setting: then `CC(C)C[C@@H]1[C@@H]2CN[C@@]3(C(=O)NCCO)[C@@H](C2)CN(CC2CCCCC2)[C@@H]13` (relative stereo) [IB-646], with 10 to 30 µM.
`CC(C)CCNC(=O)[C@]12NC[C@@H]3C[C@H]1CN(CC1CCCCC1)[C@H]2[C@@H]3Cc1ccc(O)cc1` (relative stereo) [IB-648]: the IC50 (read-out: Anti-rabies activity) was in the range of 10 to 30 µM.
As to `O=C(NCCO)[C@]12NC[C@@H]3C[C@H]1CN(Cc1ccc(F)cc1)[C@H]2[C@@H]3Cc1ccccc1` (relative stereo) [IB-649], the IC50 (read-out: Anti-rabies activity) fell in the range of 10 to 30 µM.
As to `CC(C)C[C@@H]1[C@@H]2CN[C@@]3(C(=O)NCCO)[C@@H](C2)CN(Cc2ccc(F)cc2)[C@@H]13` (relative stereo) [IB-650], for the setting “read-out: Anti-rabies activity”, the IC50 was in the range of 10 to 30 µM.
Still for that read-out and setting: then `CCCCCCNC(=O)[C@]12NC[C@@H]3C[C@H]1CN(Cc1ccc(F)cc1)[C@H]2[C@@H]3Cc1ccc(O)cc1` (relative stereo) [IB-656], with under 5 µM; and `CC(C)CC[C@@H]1[C@@H]2CN[C@@]3(C(=O)NCc4ccc(F)cc4)[C@@H](C2)CN(CCO)[C@@H]13` (relative stereo) [IB-657], with 10 to 30 µM; and `CC(C)CCN1C[C@@H]2C[C@H]3CN[C@]2(C(=O)NCCO)[C@@H]1[C@@H]3CCc1ccccc1` (relative stereo) [IB-658], with 10 to 30 µM.
As to `CC(C)CCN1C[C@@H]2C[C@H]3CN[C@]2(C(=O)NCCO)[C@@H]1[C@@H]3Cc1cccc2ccccc12` (relative stereo) [IB-659], the IC50 (read-out: Anti-rabies activity) was under 5 µM.
The same measure, in the same setting: under `O=C(NCCO)[C@]12NC[C@@H]3C[C@H]1CN(CC1CCCCC1)[C@H]2[C@@H]3CCc1ccccc1` (relative stereo) [IB-663] stands under 5 µM; under `CC(C)CC[C@@H]1[C@@H]2CN[C@@]3(C(=O)NCCO)[C@@H](C2)CN(Cc2ccc(F)cc2)[C@@H]13` (relative stereo) [IB-668], under 5 µM; under `O=C(NCCO)[C@]12NC[C@@H]3C[C@H]1CN(Cc1ccc(F)cc1)[C@H]2[C@@H]3CCc1ccccc1` (relative stereo) [IB-669], 10 to 30 µM.
Still for that read-out and setting: then `O=C(NCCO)[C@]12NC[C@@H]3C[C@H]1CN(Cc1ccccc1)[C@H]2[C@@H]3Cc1ccccc1` (relative stereo) [IB-676], with 10 to 30 µM.
Still for that read-out and setting: then `CC(C)CCNC(=O)[C@]12NC[C@@H]3C[C@H]1CN(Cc1ccccc1)[C@H]2[C@@H]3Cc1ccc(O)cc1` (relative stereo) [IB-678], with under 5 µM.
In the case of `CC(C)CC[C@@H]1[C@@H]2CN[C@@]3(C(=O)NCCO)[C@@H](C2)CN(Cc2ccccc2)[C@@H]13` (relative stereo) [IB-680], the IC50 (read-out: Anti-rabies activity) was 10 to 30 µM.
For `O=C(NCCO)[C@]12NC[C@@H]3C[C@H]1CN(Cc1ccccc1)[C@H]2[C@@H]3CCc1ccccc1` (relative stereo) [IB-681], for the setting “read-out: Anti-rabies activity”, the IC50 lay within 10 to 30 µM.
`CC(C)CCNC(=O)[C@]12NC[C@@H]3C[C@H]1CN(CC(C)C)[C@H]2[C@@H]3Cc1ccc(O)cc1` (relative stereo) [IB-684]: where the note is “read-out: Anti-rabies activity”, the IC50 fell in the range of 10 to 30 µM.
Still for that read-out and setting: under `CC(C)CN1C[C@@H]2C[C@H]3CN[C@]2(C(=O)NCCO)[C@@H]1[C@@H]3Cc1cccc2ccccc12` (relative stereo) [IB-687] stands 10 to 30 µM; under `CC(C)CCNC(=O)[C@]12NC[C@@H]3C[C@H]1CN(CC(C)C)[C@H]2[C@@H]3CCc1ccccc1` (relative stereo) [IB-688], under 5 µM; under `CC(C)CC[C@@H]1[C@@H]2CN[C@@]3(C(=O)NCc4ccccc4)[C@@H](C2)CN(CCC(=O)O)[C@@H]13` (relative stereo) [IB-694], 10 to 30 µM.
Still for that read-out and setting: under `CC(C)CCN1C[C@@H]2C[C@H]3CN[C@]2(C(=O)NCCC(N)=O)[C@@H]1[C@@H]3Cc1cccc2ccccc12` (relative stereo) [IB-703] stands under 5 µM; under `CC(C)CCN1C[C@@H]2C[C@H]3CN[C@]2(C(=O)NCC(C)C)[C@@H]1[C@@H]3CC(C)C` (relative stereo) [IB-753], under 5 µM; under `CC(C)C[C@@H]1[C@@H]2CN[C@@]3(C(=O)NCc4ccccc4)[C@@H](C2)CN(CCc2ccccc2)[C@@H]13` (relative stereo) [IB-757], under 5 µM.
On the same count and under the same terms, then `CC(C)CNC(=O)[C@]12NC[C@@H]3C[C@H]1CN(CCc1ccccc1)[C@H]2[C@@H]3Cc1ccccc1` (relative stereo) [IB-759], with under 5 µM; and `CC(C)CNC(=O)[C@]12NC[C@@H]3C[C@H]1CN(CCc1ccccc1)[C@H]2[C@@H]3CC(C)C` (relative stereo) [IB-760], with under 5 µM.
For `CC(C)CNC(=O)[C@]12NC[C@@H]3C[C@H]1CN(Cc1cccc4ccccc14)[C@H]2[C@@H]3CC(C)C` (relative stereo) [IB-762], under “read-out: Anti-rabies activity”, the IC50 was under 5 µM.
For `CC(C)CNC(=O)[C@]12NC[C@@H]3C[C@H]1CN(Cc1cccc4ccccc14)[C@H]2[C@@H]3Cc1ccc(O)cc1` (relative stereo) [IB-763], the IC50 (read-out: Anti-rabies activity) is 10 to 30 µM.
In the case of `CC(C)CNC(=O)[C@]12NC[C@@H]3C[C@H]1CN(CC1CCCCC1)[C@H]2[C@@H]3Cc1ccc(O)cc1` (relative stereo) [IB-770], for the setting “read-out: Anti-rabies activity”, the IC50 lay in the range of 10 to 30 µM.
As for `O=C(NCc1ccccc1)[C@]12NC[C@@H]3C[C@H]1CN(Cc1ccc(F)cc1)[C@H]2[C@@H]3Cc1ccccc1` (relative stereo) [IB-772], the IC50 (read-out: Anti-rabies activity) was under 5 µM.
Same read-out and setting: then `CC(C)C[C@@H]1[C@@H]2CN[C@@]3(C(=O)NCc4ccccc4)[C@@H](C2)CN(Cc2ccc(F)cc2)[C@@H]13` (relative stereo) [IB-773], with under 5 µM.
In the case of `CC(C)CNC(=O)[C@]12NC[C@@H]3C[C@H]1CN(Cc1ccc(F)cc1)[C@H]2[C@@H]3CCc1ccccc1` (relative stereo) [IB-774], the IC50 (read-out: Anti-rabies activity) is under 5 µM.
Same read-out and setting: then `O=C(NCc1ccccc1)[C@]12NC[C@@H]3C[C@H]1CN(Cc1ccccc1)[C@H]2[C@@H]3Cc1cccc2ccccc12` (relative stereo) [IB-777], with under 5 µM; and `CC(C)CCNC(=O)[C@]12NC[C@@H]3C[C@H]1CN(CC(C)C)[C@H]2[C@@H]3Cc1ccccc1` (relative stereo) [IB-780], with under 5 µM; and `CC(C)CN1C[C@@H]2C[C@H]3CN[C@]2(C(=O)NCc2ccccc2)[C@@H]1[C@@H]3Cc1ccc(O)cc1` (relative stereo) [IB-783], with 10 to 30 µM.
Consider `CC(C)CC[C@@H]1[C@@H]2CN[C@@]3(C(=O)NCc4ccccc4)[C@@H](C2)CN(Cc2ccc(O)cc2)[C@@H]13` (relative stereo) [IB-786], for which, for the setting “read-out: Anti-rabies activity”, the IC50 lay in the range of 10 to 30 µM.
As for `CC(C)C[C@@H]1[C@@H]2CN[C@@]3(C(=O)NCc4ccccc4)[C@@H](C2)CN(Cc2ccc(O)cc2)[C@@H]13` (relative stereo) [IB-787], the IC50 (read-out: Anti-rabies activity) was in the range of 10 to 30 µM.
On to `CC(C)CN1C[C@H]2C[C@]3(C(=O)NCc4ccccc4)NC[C@H]2[C@H]1[C@H]3Cc1ccccc1` (relative stereo) [IF-1, (3S*, 3aS*, 6S*, 7R*, 7aS*) -N, 7-dibenzyl-1-isobutyloctahydro-6H-3,6-methanopyrrolo[3,2-c]pyridine-6-carboxamide], for which the IC50 is 10 to 30 µM (read-out: Anti-rabies activity) and 12.6 µM (read-out: IC50).
The like results for `CC(C)CNC(=O)[C@@]12C[C@@H]3CN(Cc4ccccc4)[C@@H]([C@@H]3CN1)[C@H]2Cc1ccccc1` (relative stereo) [IF-6] were, in that order, 10 to 30 µM and 16.3 µM.
For the compound `CC(C)CN1C[C@H]2C[C@]3(C(=O)NCc4ccccc4)NC[C@H]2[C@H]1[C@H]3CCc1ccccc1` (relative stereo) [IF-11], the IC50 is 10 to 30 µM (read-out: Anti-rabies activity) and 17.5 µM (read-out: IC50).
Turning to `Cc1cccc(C[C@@H]2[C@@H]3[C@@H]4CN[C@@]2(C(=O)NCc2ccccc2)C[C@@H]4CN3CC(C)C)c1` (relative stereo) [IF-13], the IC50 reads like this: (read-out: Anti-rabies activity) 10 to 30 µM; (read-out: IC50) 13.1 µM.
For `Cc1ccc(C[C@@H]2[C@@H]3[C@@H]4CN[C@@]2(C(=O)NCc2ccccc2)C[C@@H]4CN3CC(C)C)cc1` (relative stereo) [IF-14], the IC50 (read-out: Anti-rabies activity) is 10 to 30 µM and the IC50 (read-out: IC50) was determined as 14.1 µM.
As to `Cc1cccc(CNC(=O)[C@@]23C[C@@H]4CN(CC(C)C)[C@@H]([C@@H]4CN2)[C@H]3Cc2ccccc2)c1` (relative stereo) [IF-15], the IC50 is 10 to 30 µM (read-out: Anti-rabies activity) and 17.1 µM (read-out: IC50).
The like results for `CC(C)C[C@@H]1[C@@H]2[C@@H]3CN[C@@]1(C(=O)NCc1ccc(Cl)c(Cl)c1)C[C@@H]3CN2Cc1ccccc1` (relative stereo) [IF-20] were, in that order, 10 to 30 µM and 11.6 µM.
For the compound `CC(C)CN1C[C@H]2C[C@]3(C(=O)NCc4ccccc4)NC[C@H]2[C@H]1[C@H]3CC1CCCCC1` (relative stereo) [IF-38], the IC50 (read-out: Anti-rabies activity) lay within 10 to 30 µM.
Regarding `O=C(NCc1ccccc1)[C@@]12C[C@@H]3CN(Cc4cccc5ccccc45)[C@@H]([C@@H]3CN1)[C@H]2Cc1ccccc1` (relative stereo) [IF-42], the IC50 (read-out: Anti-rabies activity) lay in the range of 10 to 30 µM.
